Measurements as given in US10975063B2, “Compound, and production method thereof, and methods of treatment using the compound” (ABIVAX, priority 2009, dated 2021).

Tested on: HIV-1
Test: Inhibition of HIV-1 production (p24 antigen) in infected peripheral blood mononuclear cells (PBMCs)
Type: cell-based, HIV-1 (AdaM) in PBMCs of healthy donors
Settings: for IC50: Human immunodeficiency virus 1, PBMC, p24 production in HIV infected PBMCs, dose response curves; for Inhibition of p24 production in HIV infected PBMCs from different donors: tested molecules at 10 μM, p24 after 3 and 6 days of infection, number of donors with inhibition out of donors tested
Method: Within this framework, the peripheral blood mononuclear cells (PBMCs) of healthy donors are isolated by centrifugation on a FICOLL gradient. The cells are then cultivated to a density of 2.5×10^6 cells/ml with RPMI medium supplemented with 1% inactivated human AB serum, then incubated at 37° C., 5% CO2 for an additional hour. The peripheral blood mononuclear cells are then recovered and cultivated for two days in RPMI medium supplemented with 10% fetal calf serum.
A standard experiment using 96 plates to test 30 molecules in triplicates including positive and negative controls, is performed as follows:
50 10^6 Ficoll purified PBMCs (10% DMSO 90% FCS) are washed with RPMI 10% FCS and resuspended in 25 ml of RPMI 10% FCS, glutamax containing 1000 U/ml of IL2 and 5 μg/ml PHA. The cells are then incubated for 3 days at 37° C. before to be washed with 50 ml PBS then with 50 ml RPMI 10% FCS. The cells are resuspended in 100 μl of RPMI 10% FCS containing 100 U/ml IL2 and seeded in 96 wells (1.5 10^5 cells/well). Viral infection is performed with 1 ng of AdaM/well. 100 μl of tested molecules at concentration of 10 μM are added to each well. Virus production is determined by p24 antigen immunosorbent assays after 3 and 6 days of infection (Kit Innogenetics). Typically PBMCs are prepared from several healthy donors (around 11 different donors). Dose response curves were then established with selected compounds to determine IC50.

SMILES | IC50 [nM] | Inhibition of p24 production in HIV infected PBMCs from different donors
Cc1ccnc(Nc2ccc3cccc(Cl)c3n2)c1 [Compound 6, (8-Chloro-quinolin-2-yl)-(4-methyl-pyridin-2-yl)-amine] | 0.1 | 
Fc1ccc(Nc2ccc3cccc(Cl)c3n2)nc1 [Compound 43, 8-chloro-N-(5-fluoropyridin-2-yl)quinolin-2-amine] | 0.1 | 8 out of 10 donnors
Cc1cccc(Nc2nc3ccccc3cc2C)n1 [Compound 46, 3-methyl-N-(6-methylpyridin-2-yl)quinolin-2-amine] |  | 4 out of 4 donnors
CCc1cccc(Nc2ccc3cccc(Cl)c3n2)n1 [Compound 50, 8-chloro-N-(6-ethylpyridin-2-yl)quinolin-2-amine] |  | 4 out of 4 donnors
Cc1ccnc(Nc2ccc3c([N+](=O)[O-])cccc3n2)c1 [Compound 64, N-(4-methylpyridin-2-yl)-5-nitroquinolin-2-amine] |  | 5 out of 5 donnors
FC(F)(F)c1ccnc(Nc2ccc3cccc(Cl)c3n2)c1 [Compound 68, 8-chloro-N-[4-(trifluoromethyl)pyridin-2-yl]quinolin-2-amine] |  | 4 out of 4 donnors
Oc1cccnc1Nc1ccc2cccc(Cl)c2n1 [Compound 69, 2-[(8-chloroquinolin-2-yl)amino]pyridin-3-ol] |  | 4 out of 4 donnors
FC(F)(F)c1cccc(Nc2ccc3cccc(Cl)c3n2)n1 [Compound 70, 8-chloro-N-[6-(trifluoromethyl)pyridin-2-yl]quinolin-2-amine] |  | 4 out of 4 donnors
Fc1ccc(Nc2ccc3cc(Cl)ccc3n2)nc1 [Compound 71, 6-chloro-N-(5-fluoropyridin-2-yl)quinolin-2-amine] |  | 4 out of 4 donnors
CCc1cccc(Nc2nc3ccccc3cc2C)n1 [Compound 72, N-(6-ethylpyridin-2-yl)-3-methylquinolin-2-amine] |  | 4 out of 4 donnors
Cc1cc2ccccc2nc1Nc1ccc(F)cn1 [Compound 73, N-(5-fluoropyridin-2-yl)-3-methylquinolin-2-amine] |  | 4 out of 4 donnors
Cc1cc2ccccc2nc1Nc1ccc(C(F)(F)F)cn1 [Compound 74, 3-methyl-N-[5-(trifluoromethyl)pyridin-2-yl]quinolin-2-amine] |  | 4 out of 4 donnors
CN(C)c1ccc(Nc2ccc3cccc(Cl)c3n2)cc1 [Compound 75, 4-N-(8-chloroquinolin-2-yl)-1-N,1-N-dimethylbenzene-1,4-diamine] |  | 6 out of 7 donnors
COc1ccc(Nc2ccc3cccc(Cl)c3n2)cc1 [Compound 77, 8-chloro-N-(4-methoxyphenyl)quinolin-2-amine] | 0.05 | 11 out of 13 donnors
Cc1cc(Nc2ccc(OC(F)(F)F)cc2)nc2ccccc12 [Compound 78, 4-methyl-N-[4-(trifluoromethoxy)phenyl]quinolin-2-amine] |  | 7 out of 8 donnors
COc1ccc(Nc2nc3ccccc3cc2C)cc1 [Compound 79, N-(4-methoxyphenyl)-3-methylquinolin-2-amine] |  | 7 out of 8 donnors
Cc1cc2ccccc2nc1Nc1ccc(OC(F)(F)F)cc1 [Compound 80, 3-methyl-N-[4-(trifluoromethoxy)phenyl]quinolin-2-amine] | 1 | 7 out of 8 donnors
Cc1cc2ccccc2nc1Nc1ccc(N(C)C)cc1 [Compound 81, 1-N,1-N-dimethyl-4-N-(3-methylquinolin-2-yl)benzene-1,4-diamine] |  | 4 out of 4 donnors
